In data set [1] the test system is IL-10. Briefly: LPS+PHA-induced IL-10 secretion in whole blood from healthy subjects (ELISA). The settings on record: indicated ATP concentrations, 24 h. The class given is cell-based, human. As to the method: FIG. 8 Effect of ATP on LPS+PHA-induced IL-10 secretion in whole blood from healthy subjects. The whole blood was exposed to 10 μg/ml LPS and 1 μg/ml PHA with indicated concentrations of ATP for 24 h. The IL-10 released into the supernatants was analyzed using the ELISA method. Results are expressed in percentage, 100% being the IL-10 release under stimulation by LPS+PHA without ATP. […] Data are expressed as the mean values; error bars represent SEM. *, different from control (stimulation by LPS+PHA without ATP) (P<0.05).
(§1) Blood was collected from 8 healthy subjects in heparin containing vacutainer tubes. All incubations were performed in duplicate. ATP was dissolved in RPMI 1640 culture medium, at a final concentration of 1-300 μM, and blood pre-incubated with ATP at 5% CO2 at 37 DC for 30 min. After stimulation with LPS en PHA (10 and 1 μg/ml final concentration, respectively), the plates were incubated in 5% CO2 at 37° C. for 24 h. Cell-free supernatant fluids were then collected by centrifugation (6000 rpm, 10 min at 4° C.) and stored at −20° C. until tested for presence of cytokines. All cytokines were quantified by means of PeliKine Compact human ELISA kits (CLB/Sanquin, The Netherlands), based on appropriate and validated sets of monoclonal antibodies.
Whole blood was collected and stimulated with LPS+PHA as described for Experiment 2. […]
(In an ELISA, binding on a coated surface is turned into a signal by an enzyme label.)

The subject of data set [2] is IL-6. Briefly: LPS+PHA-induced IL-6 secretion in whole blood from healthy subjects (ELISA). The class given is cell-based, human. The conditions noted are these: indicated ATP concentrations, 24 h. As to the method:
FIG. 9 Effect of ATP on LPS+PHA-induced IL-6 secretion in whole blood from healthy subjects. The whole blood was exposed to 10 μg/ml LPS and 1 μg/ml PHA with indicated concentrations of ATP for 24 h. The IL-6 released into the supernatants was analyzed using the ELISA method. Results are expressed in percentage, 100% being the IL-6 release under stimulation by LPS+PHA without ATP. […] Data are expressed at the mean values; error bars represent SEM.
as §1

The test system of data set [3] is TNF-α/IL-10 ratio. Briefly: TNF-α/IL-10 ratio in whole blood incubated with H2O2 without LPS+PHA. Format: cell-based, human. The conditions noted are these: 300 μM ATP, 5 mM H2O2, no LPS+PHA. As to the method: FIG. 14 Effect of ATP on cytokine secretion in whole blood under conditions of oxidative stress. Blood was pre-incubated with ATP or no ATP (control) for 30 min, followed by incubation with H2O2 (5 mM) or 24 h, without addition of LPS+PHA. The TNF-α and IL-10 released into the supernatant was analyzed using the ELISA method. Results are expressed in percentage, 100% being the TNF-α/IL-10 ratio when blood was incubated with H2O2 only, but no ATP (control). The TNF-alpha/IL-10 ratio was reduced by ATP in a concentration-dependent manner, with a 90% reduction at 300 μM ATP, indicating inhibition of inflammatory response.
This experiment was performed to test the effects of ATP under circumstances of oxidative stress in healthy subjects, but without LPS-PHA induced stimulation of cytokine production. Whole blood was collected as described for experiment 2, and was pre-incubated with ATP at final concentrations of 100-300 μM, or no ATP (control), for 30 min. Then, blood was incubated with H2O2 (5 mM) or 24 h, without addition of LPS+PHA. and incubated for 24 hours with 5 mM H2O2 at 5% CO2 and 37° C. Cytokine production was measured as in Experiment 2. Results were expressed as the TNF-α/IL-10 ratio relative to the control condition (H2O2 without ATP).

Data set [4] has as its system TNFα. Put plainly: TNFα secretion in whole blood after γ-irradiation. The class given is cell-based. The conditions noted are these: 300 μM ATP, 16 Gy, 3 and 5 h post-irradiation. As to the method: FIG. 18 Effect of ATP on cytokine secretion in whole blood after γ-irradiation. Blood was pre-incubated with 300 μM ATP or medium (control) for 30 minutes and then irradiated with γ-radiation (16 Gy).
Samples with 5 ml of blood were pre-incubated with 300 μM ATP or medium (control) for 30 minutes. Then, at t=0, each blood sample was irradiated with γ-radiation at a dose of 16 Gy. Preceding irradiation (baseline) and at 1 h, 3 h and 5 h post-irradiation, a sample was taken for analysis of intracellular GSH and GSH/GSSG ratios according to standard methods, as well as for cytokine analysis by the ELISA method.

Data set [5] in a line: ATP infusions in a patient with rheumatoid arthritis. Format: in vivo, human. As to the method:
Patients with different diseases received infusions of 10-75 μg/kg·min over 8-24 h, at intervals of 1-4 weeks in different randomized clinical trials. In all cases, the first. infusion was given under clinical supervision, subsequent infusions were given in the setting of private homes. Preliminary results in small numbers of patients with persistent rheumatoid arthritis, chronic fatigue syndrome, and cancer in the pre-terminal stage, and lung cancer during curative radiotherapy are given below.
[…] […] DAS score had decreased from 5.80 to 3.09 and CRP had decreased from 43 to 6 mg/L.; all other blood values were normal. MD's conclusion: marked decease of disease activity.

Data set [6] in a line: Randomized ATP infusions in non-small-cell lung cancer patients, stage IIIB and IV. Format: in vivo, human. As to the method:
Patients with non-small-cell lung cancer, stage IIIB and IV, in the palliative treatment stage, were randomized to receive either ATP infusions (total of 10 infusions over 24 weeks) or no treatment. Outcome assessment (quality of life, blood values) was performed at regular intervals.

A short description of data set [7]: Side effects of intravenous ATP infusions. Format: in vivo, human. The conditions noted are these: over 60 home infusions in cancer patients. As to the method: For reasons of patients' safety, there has been no attempt to administer ATP outside a strict medical setting to date. In particular, WO 03/061568 (Rapaport) discloses the administration of ATP over a period of typically 8-10 hours in an outpatient setting within the hospital. […] Thus, both our data and US 2003/0109486 contradict the disclosure of WO 03/061568.
In order to determine the tolerance for ATP as well as the maximally tolerated dose of ATP, the first ATP infusion is preferably administered under medical supervision, usually in an in- or outpatient setting. Subsequent infusions can either be started at the hospital day care centre, at private homes, nursing homes, etc. according to a standardized protocol.

The mark [8] stands for this setting: after 10 weekly infusions, 10-15 μg/kg·min.

The structures appear in SMILES notation. Entries after “also recorded” stand apart in the source; their conditions may differ.

Regarding `Nc1ncnc2c1ncn2[C@@H]1O[C@H](COP(=O)(O)OP(=O)(O)OP(=O)(O)O)[C@@H](O)[C@H]1O` [ATP, Adenosine 5′-triphosphate], in data set [1], the “effect on LPS+PHA-induced IL-10 release” value was “significantly increased”. Besides, in data set [2], the “effect on LPS+PHA-induced IL-6 release” value was “No effect; also recorded: not influenced”. Also, the “reduction in the TNF-α/IL-10 ratio” value in data set [3] is 90%. Besides, the “effect on irradiation-induced TNFα stimulation” value in data set [4] is “completely blocked”. The “joint swelling and pain” value in data set [5] (after 10 infusions) is reported as “markedly decreased”. In data set [5] (setting [8]), this compound had a CRP of 6 mg/L and a DAS score of 3.09. In data set [5] (before ATP), this compound came in with a CRP of 43 mg/L and a DAS score of 5.80. Also, in data set [6] (24-week study period), the “plasma lactate dehydrogenase concentration” value is reported as “remained stable” and the plasma triglyceride concentration result is recorded as “remained stable”. Also, in data set [6] (human, in vivo), the “decreased sexual interest, compared to the control group” value was “normalization”; the “dizziness, compared to the control group” value is on record as “reduction”; the “dry mouth, compared to the control group” value is on record as “improvement”. Besides, the “serious side effects grade 3-4 on the WHO Common Toxicity Criteria scale” value in data set [7] is “no serious side effects”.
